{"source": "patent EP3087981A1", "about": "“HYGROPHORON B12 FOR USE IN THE TREATMENT OF A MYCOSIS” (Leibniz-Institut für Pflanzenbiochemie (IPB), priority 2015, dated 2016)", "system": "Malassezia pachydermatis Isolat CBS 1879", "experiment": "Dilution assay in 96-well microtiter plates, minimal inhibitory concentration (MHK)", "type": "cell-based", "settings": "CBS1879, RPMI 1640 Medium, 2 bis 4 Tage bei 37 °C, visual evaluation, read-out: minimale Hemmkonzentration (MHK)", "description": "Einer besonders bevorzugten Ausführungsform der Erfindung entsprechend wird Hygrophoron B^12 oder dessen Enantiomer, Epimere oder Diastereomere zur Verwendung bei der Behandlung einer Mykose eingesetzt, die durch Malassezia pachydermatis ausgelöst wird. Die Evaluierung der biologischen Eigenschaften des erfindungsgemäß verwendeten Hygrophorons B^12 ergab, dass Hygrophoron B^12 stark antimykotische Eigenschaften aufweist. Insbesondere weist Hygrophoron B^12 starke Aktivität gegen Malassezia pachydermatis auf. Figur 1 zeigt eine überraschend starke in vitro Aktivität des erfindungsgemäß verwendeten Hygrophorons B^12 gegen Malassezia pachydermatis, wobei die Aktivität mit dem Arzneistoff Terbinafin vergleichbar ist. Terbinafin ist ein synthetisches Antimykotikum und seit vielen Jahren das meist verordnete Präparat. In Figur 1 bezeichnet MHK die minimale HemmKonzentration (MHK). Sie ist die niedrigste Konzentration einer Substanz, bei der die Vermehrung von Mikroorganismen mit bloßem Auge nicht wahrgenommen werden kann. Die MHK wird mit einem sogenannten Titerverfahren bestimmt. Dabei wird die Konzentration von einem Wirkstoff (hier Terbinafin und Hygrophoron B^12) bestimmt, der das Wachstum von Malassezia pachydermatis gerade noch hemmt. Die MHK wird in Mikrogramm pro Milliliter (µg/ml) angegeben. […]", "data": [{"compound": "CCCCCCCCCCCC[C@@H](O)[C@@]1(O)C(=O)C=C[C@@H]1O", "note": "[Hygrophoron B^12, (+)-cis-4,5-Dihydroxy-5-(1-hydroxytridecyl)cyclopent-2-enon]", "values": [{"measurement": "MIC", "value": 0.17, "unit": "µg/mL"}]}]}
